Like-named read-outs stand apart in the source and are kept apart here. Numbered stars: 1 amine (or outer) side, 2 acyl side, 3 side chain; on linkers, the order of the positions; unused ones are H or OH. Bridge positions count the residues as written; N and C are the ends. Square brackets hold non-standard residues; d marks the D form. Peptide text beside a SMILES is read from it. X3 = O=C(/C=N/OCCCCCCOc1cc(C[*:2])cc(C[*:3])c1)[*:1]; X1 = O=C(C=NOCCCCCCOc1cc(C[*:2])cc(C[*:3])c1)[*:1]; Nle = CCCC[C@H](N)C(=O)O
Biological target: T1, rh-integrin α4β7/LPAM-1 (Homo sapiens, UniProt P13612+P26010)
T1 sequence (P13612 34-977 limits assumed): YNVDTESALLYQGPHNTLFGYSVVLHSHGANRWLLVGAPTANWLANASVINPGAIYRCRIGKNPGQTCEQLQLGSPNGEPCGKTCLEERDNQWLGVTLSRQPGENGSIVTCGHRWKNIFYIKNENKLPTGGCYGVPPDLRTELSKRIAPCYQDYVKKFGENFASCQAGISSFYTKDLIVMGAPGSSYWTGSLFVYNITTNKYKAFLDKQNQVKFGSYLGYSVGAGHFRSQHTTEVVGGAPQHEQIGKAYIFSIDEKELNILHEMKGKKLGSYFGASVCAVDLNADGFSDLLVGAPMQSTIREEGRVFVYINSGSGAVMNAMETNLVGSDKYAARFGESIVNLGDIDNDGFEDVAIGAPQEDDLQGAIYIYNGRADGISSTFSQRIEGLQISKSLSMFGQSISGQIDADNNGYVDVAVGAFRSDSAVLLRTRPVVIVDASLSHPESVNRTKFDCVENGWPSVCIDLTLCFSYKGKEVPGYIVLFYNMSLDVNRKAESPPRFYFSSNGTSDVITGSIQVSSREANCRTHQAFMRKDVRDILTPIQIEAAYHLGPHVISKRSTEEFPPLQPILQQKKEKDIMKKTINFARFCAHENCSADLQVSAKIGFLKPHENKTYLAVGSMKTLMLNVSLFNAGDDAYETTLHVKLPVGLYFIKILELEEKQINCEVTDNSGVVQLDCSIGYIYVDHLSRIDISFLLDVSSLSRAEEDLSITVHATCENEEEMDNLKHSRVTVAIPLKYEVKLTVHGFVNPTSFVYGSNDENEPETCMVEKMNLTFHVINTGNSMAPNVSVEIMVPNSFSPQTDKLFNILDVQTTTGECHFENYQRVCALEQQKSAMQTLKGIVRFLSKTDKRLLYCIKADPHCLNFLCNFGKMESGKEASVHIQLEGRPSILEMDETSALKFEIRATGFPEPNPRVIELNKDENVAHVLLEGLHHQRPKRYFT
T1 sequence (P26010 20-723 limits assumed): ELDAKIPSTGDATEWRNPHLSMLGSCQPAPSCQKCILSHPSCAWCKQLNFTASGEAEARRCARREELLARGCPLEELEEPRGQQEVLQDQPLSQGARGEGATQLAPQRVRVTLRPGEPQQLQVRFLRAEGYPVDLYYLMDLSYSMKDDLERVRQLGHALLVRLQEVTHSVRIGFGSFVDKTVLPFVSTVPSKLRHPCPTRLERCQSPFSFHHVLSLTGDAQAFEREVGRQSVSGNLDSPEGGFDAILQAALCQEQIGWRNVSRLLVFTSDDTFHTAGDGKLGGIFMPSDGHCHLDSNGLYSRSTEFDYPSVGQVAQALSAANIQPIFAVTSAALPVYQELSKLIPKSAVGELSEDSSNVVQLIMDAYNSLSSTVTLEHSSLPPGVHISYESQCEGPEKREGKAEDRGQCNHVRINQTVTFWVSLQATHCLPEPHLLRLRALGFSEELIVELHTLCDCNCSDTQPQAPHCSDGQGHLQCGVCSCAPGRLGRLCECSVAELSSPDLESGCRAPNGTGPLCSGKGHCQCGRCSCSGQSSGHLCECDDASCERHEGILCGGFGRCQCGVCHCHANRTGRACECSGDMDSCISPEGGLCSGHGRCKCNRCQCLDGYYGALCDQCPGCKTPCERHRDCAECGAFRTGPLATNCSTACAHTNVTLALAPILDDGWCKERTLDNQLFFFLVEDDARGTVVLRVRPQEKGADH
Assay: α4β7-MadCAM Competition ELISA (Example 4)
Assay type: binding
Experimental: After washing with wash buffer, 200 μL assay buffer was added to each well and incubated for one hour at 28° C. After another wash with wash buffer, 100 μL of a MAdCAM and peptide mixture in assay buffer was added to each well and incubated for one hour at 28° C., followed by washing with wash buffer.

[1] = Table 3 Representative compounds, inhibition of MAdCAM binding to coated α4β7, read-out: IC50
[2] = competition ELISA, 4 μg/mL α4β7 coated, MAdCAM and peptide mixture, 28° C., read-out: IC50

Compound | IC50 [1] | IC50 [2] | further results
CC(C)C[C@@H]1NC(=O)[C@@H]2CCCN2C(=O)[C@@H]2CSCc3cc(cc(c3)OCCCCCCO/N=C/C(=O)N[C@@H](CCCCN)C(=O)N2)CSC[C@@H](C(N)=O)NC(=O)[C@H](C)NC(=O)[C@H](Cc2ccc(O)cc2)NC(=O)[C@@H]2CCCN2C(=O)[C@H]([C@@H](C)O)NC(=O)[C@H](CC(=O)O)NC1=O [compound 24, TSL6- SKCPLDTPYAC] (KCPLDTPYAC-NH2; linker N-2-10 via X3) | 0.517 µM | – | –
CC(C)C[C@@H]1NC(=O)[C@H]([C@@H](C)O)NC(=O)[C@H](CC(=O)O)NC(=O)[C@H](CO)NC(=O)[C@H](CCCNC(=N)N)N(C)C(=O)CCSC[C@@H](C(=O)N[C@@H](Cc2c[nH]c3ccccc23)C(=O)N[C@@H](CCCCN)C(N)=O)NC1=O [compound 2] | 0.033 µM | – | –
CC(C)C[C@H]1NC(=O)[C@@H]2CCCN2C(=O)[C@@H]2CSCc3cc(cc(c3)OCCCCCCO/N=C/C(=O)N[C@@H](C)C(=O)N2)CSC[C@@H](C(N)=O)NC(=O)[C@H](CO)NC(=O)[C@@H]2CCCN2C(=O)[C@H](C(C)C)NC(=O)[C@H](CC(=O)O)NC1=O [compound 74, TSL6- SACPLDVPSC] (ACP[dL]DVPSC-NH2; linker N-2-9 via X3) | 31 µM | – | –
CCCC[C@@H]1NC(=O)[C@@H]2CCCN2C(=O)[C@@H]2CSCc3cc(cc(c3)OCCCCCCO/N=C/C(=O)N[C@@H](CCCNC(=N)N)C(=O)N2)CSC[C@@H](C(N)=O)NC(=O)[C@H](CCC(=O)O)NC(=O)[C@H](CCC(N)=O)NC(=O)[C@H](Cc2c[nH]c3ccccc23)NC(=O)[C@H](C(C)C)NC(=O)[C@H](CC(=O)O)NC1=O [compound 3] (RCP[Nle]DVWQEC-NH2; linker N-2-10 via X3) | 0.053 µM | – | –
CC(C)C[C@@H]1NC(=O)[C@H](C)NC(=O)[C@@H]2CSCc3cc(cc(c3)OCCCCCCO/N=C/C(=O)N[C@@H](CCCCN)C(=O)N2)CSC[C@@H](C(N)=O)NC(=O)[C@H](CO)NC(=O)[C@@H]2CCCN2C(=O)[C@H](C(C)C)NC(=O)[C@H](CC(=O)O)NC1=O [compound 59, TSL6- SKCALDVPSC] (KCALDVPSC-NH2; linker N-2-9 via X3) | 4.01 µM | – | –
N=C(N)NCCC[C@@H]1NC(=O)CNC(=O)[C@H](Cc2ccc(O)cc2)NC(=O)[C@H](Cc2c[nH]c3ccccc23)NC(=O)[C@H](Cc2c[nH]cn2)NC(=O)[C@@H]2CSCc3cc(cc(c3)OCCCCCCON=CC(=O)N[C@@H](CCC(N)=O)C(=O)N2)CSC[C@@H](C(=O)O)NC(=O)[C@H](CO)NC1=O [SEQ ID NO: 19] (QCHWYGRSC-OH; linker N-2-9 via X1) | – | > 500 µM | –
CC(C)C[C@@H]1NC(=O)[C@@H]2CCCN2C(=O)[C@@H]2CSCc3cc(cc(c3)OCCCCCCON=CC(=O)N[C@@H](CCCCN)C(=O)N2)CSC[C@@H](C(=O)O)NC(=O)[C@H](CCC(=O)O)NC(=O)[C@H](Cc2ccc(O)cc2)NC(=O)[C@@H]2CCCN2C(=O)[C@H]([C@@H](C)O)NC(=O)[C@H](C)NC1=O [SEQ ID NO: 72] (KCPLATPYEC-OH; linker N-2-10 via X1) | – | > 500 µM | –
CC(C)C[C@@H]1NC(=O)[C@@H]2CCCN2C(=O)[C@@H]2CSCc3cc(cc(c3)OCCCCCCO/N=C/C(=O)N[C@@H](CCCCN)C(=O)N2)CSC[C@@H](C(N)=O)NC(=O)[C@H](CO)NC(=O)[C@@H]2CCCN2C(=O)[C@H](C(C)C)NC(=O)[C@H](CC(=O)O)NC1=O [compound 31, TSL6- SKCPLDVPSC] (KCPLDVPSC-NH2; linker N-2-9 via X3) | 0.723 µM | – | –
CCCC[C@@H]1NC(=O)[C@H](CO)NC(=O)[C@H](CCCNC(=N)N)NC(=O)[C@@H]2CSCC(=O)N[C@@H](CCCNC(=N)N)C(=O)N[C@@H](CSSC[C@@H](C(=O)N[C@@H](Cc3c[nH]c4ccccc34)C(=O)N[C@@H](CCC(N)=O)C(N)=O)NC(=O)[C@H]([C@@H](C)CC)NC(=O)[C@H](CC(=O)O)NC1=O)C(=O)N[C@@H](CO)C(=O)N[C@@H](CC(=O)O)C(=O)N[C@@H]([C@@H](C)O)C(=O)N[C@@H](CC(C)C)C(=O)N2 [SEQ ID NO: 96] ({CH2CO}-RCSDTLCRS[Nle]DICWQ-NH2; disulfide 2-13; thioether N-7) | – | 15.9 µM | –
C[C@@H](O)[C@@H]1NC(=O)[C@H](CCCCN)NC(=O)[C@H](CO)NC(=O)[C@H](CCC(N)=O)NC(=O)[C@H](Cc2c[nH]c3ccccc23)NC(=O)[C@@H]2CCCN2C(=O)[C@@H]2CSCc3cc(cc(c3)OCCCCCCON=CC(=O)N[C@@H](CC(=O)O)C(=O)N2)CSC[C@@H](C(=O)O)NC1=O [SEQ ID NO: 95] (DCPWQSKTC-OH; linker N-2-9 via X1) | – | – | IC50 (IC50, competition ELISA, 4 μg/mL α4β7 coated, MAdCAM and peptide mixture, 28° C.): 17.7 µM
CCCC[C@@H]1NC(=O)[C@@H]2CCCN2C(=O)[C@@H]2CSCc3cc(cc(c3)OCCCCCCC(=O)NCC(=O)N[C@@H](C)C(=O)N2)CSC[C@@H](C(N)=O)NC(=O)[C@H](CCC(=O)O)NC(=O)[C@H](CCC(N)=O)NC(=O)[C@H](Cc2c[nH]c3ccccc23)NC(=O)[C@H](C(C)C)NC(=O)[C@H](CC(=O)O)NC1=O (stereo in doubt) [compound 33, TSLC7- GACP{Nle} DVWQEC] | 0.74 µM | – | –
CC(C)C[C@@H]1NC(=O)[C@H]([C@@H](C)O)NC(=O)[C@H](CC(=O)O)NC(=O)[C@H](CO)NC(=O)[C@H](CCCNC(=N)N)NC(=O)[C@@H](N)CSSC[C@@H](C(N)=O)NC1=O [compound 8] (H-CRSDTLC-NH2; disulfide 1-7) | 0.186 µM | – | –
CC(C)C[C@@H]1NC(=O)/C=N/OCCCCCCOc2cc3cc(c2)CSC[C@H](NC1=O)C(=O)N[C@@H](Cc1ccc(O)cc1)C(=O)N1CCC[C@H]1C(=O)N[C@@H](CC(=O)O)C(=O)N[C@@H]([C@@H](C)O)C(=O)N[C@@H](Cc1ccc(O)cc1)C(=O)N[C@@H](Cc1cnc[nH]1)C(=O)N[C@H](C(N)=O)CSC3 [compound 73, TSL6- SLCYPDTYHC] (LCYPDTYHC-NH2; linker N-2-9 via X3) | 30.6 µM | – | –
C[C@@H](O)[C@@H]1NC(=O)[C@H](CC(=O)O)NC(=O)[C@@H]2CCCN2C(=O)[C@H](Cc2ccc(O)cc2)NC(=O)[C@@H]2CSCc3cc(cc(c3)OCCCCCCON=CC(=O)N[C@@H](CC(N)=O)C(=O)N2)CSC[C@@H](C(=O)O)NC(=O)[C@H](Cc2c[nH]cn2)NC(=O)[C@H](Cc2ccc(O)cc2)NC1=O [SEQ ID NO: 86] (NCYPDTYHC-OH; linker N-2-9 via X1) | – | 79.3 µM | –
CC(C)C[C@@H]1NC(=O)[C@@H]2CCCN2C(=O)[C@@H]2CSCc3cc(cc(c3)OCCCCCCON=CC(=O)N[C@@H](CCCCN)C(=O)N2)CSC[C@@H](C(=O)O)NC(=O)[C@H](CCC(=O)O)NC(=O)[C@H](Cc2ccc(O)cc2)NC(=O)[C@@H]2CCCN2C(=O)[C@H](CC(C)C)NC(=O)[C@H](CC(=O)O)NC1=O [SEQ ID NO: 134] (KCPLDLPYEC-OH; linker N-2-10 via X1) | – | 0.363 µM | –
CSCC[C@@H]1NC(=O)[C@@H]2CCCN2C(=O)[C@@H]2CSCc3cc(cc(c3)OCCCCCCO/N=C/C(=O)N[C@@H](C)C(=O)N2)CSC[C@@H](C(N)=O)NC(=O)[C@H](CCC(=O)O)NC(=O)CNC(=O)[C@H](C)NC(=O)[C@H](C(C)C)NC(=O)[C@H](CC(=O)O)NC1=O [compound 61, TSL6- SACPMDVAGEC] (ACPMDVAGEC-NH2; linker N-2-10 via X3) | 5.98 µM | – | –

From patent publication US20230145835A1, “Modulators of Alpha-4-beta-7 Integrin and MAdCAM” (48HD Biopharma Inc., priority 2021, published 2023)
